Values after ≈ are worked out from the molar mass of the structure shown. Read-outs that look alike come from different tables or passages of the source. Blank lines part the entries; values can stand above or below the compound they belong to.
How the values were obtained:
[1] = rat, in vivo; cited from earlier work
[2] = test system: experimental autoimmune encephalomyelitis; details: i.p. 5 μg/kg every 2 days; cited from earlier work
[3] = test system: Langerhans cells (LCs) and dermal dendritic cells (DDCs); details: LCs and DDCs primed in vitro; cited from earlier work
[4] = cited from earlier work
[5] = Solubility; assay type: physicochemical
Procedure: In water, the solubility of OVA is about one gram per ml of water. Methylated BSA (mBSA) has been used for immunization at a concentration of 50 mg/ml of 0.9% NaCl (Gent et al., 2014).
In water DexP (MW 516.4) is soluble at a concentration of 50 mg/ml (product information of Santa Cruz Biotechnology), in PBS at a concentration of at least 25 mg/ml (Anderson et al., 2010), and in 10 mM HEPES and 135 mM NaCl, pH 6.7, at a concentration of at least 50 mg/ml (Koning et al., 2006).

[6] = Release of calcitriol from PLGA-PEG-PLGA hydrogels; assay type: physicochemical
Procedure: The biodegradable PLGA-PEG-PLGA triblock polymer described in this example has a PLG/PEG weight ratio of 2.3 (70/30), and a lactide/glycolide molar ratio of approx. 15/1. Synthesis of the triblock copolymer is performed as described in Example 2.1. An aliquot of 20 μl of a stock solution of calcitriol (2 mg/ml; 4.8 mM) in absolute ethanol (Cayman/Biomol GmbH) is combined with 160 μl of 25% gel solution and 20 μl of 10×PBS (final concentration of calcitriol: 0.2 mg/ml or 0.48 mM; final concentration of ethanol: 10%).
The mixture of 5.1.1 is incubated for 2 minutes at 37° C. to induce gelling and overlayed with 200 μl of 1×PBS. At frequent time points the supernatant is removed by pipetting and stored at 4° C. The removed supernatant is replaced by fresh 200 μl of 1×PBS. Controls of the same concentration of calcitriol in 1×PBS without gel are incubated and sampled in parallel.
After 48 hours the samples and controls are analysed using a Vitamin D ELISA kit, according to the manual of the manufacturer (Euroimmun AG, Luebeck). The assay is applicable for the determination of 25-0H vitamin D3 and other hydroxylated vitamin D3 molecules, and sufficiently linear from 4.0 to 120 ng/ml of 25-0H vitamin D3 (cross reactivity with calcitriol: 45%).
In brief, 20 μl of diluted samples are mixed with 230 μl of sample buffer containing a biotin-labed 25-0H vitamin D derivative. 200 μl of the mixture are transferred to an ELISA well of an 8-well strip and incubated at room temperature for 2 hours. The wells are washed with 3×300 μl washing buffer. Peroxidase labelled steptavidin-conjugate (100 μl) is added and incubated for a further hour. The well is again washed 3× with 300 μl washing buffer. Tetramethyl-benzidine (100 μl) substrate solution is added and developed until sufficient coloring. The reaction is stopped by addition of 100 μl 0.5 M sulphuric acid and measured spectrometrically at 420 nm with reference 650 nm.

[7] = humans; cited from earlier work
[8] = rodents; cited from earlier work
[9] = cited from earlier work; remark: listed apart in the source
[10] = test system: TNFR1-mediated activation of NF-κB; details: high concentrations; cited from earlier work
[11] = rats; cited from earlier work
[12] = cited from earlier work; remark: listed apart in the source
[13] = test system: calcium metabolism; details: compared to 1,25-(OH)2D3; cited from earlier work
[14] = cited from earlier work; remark: listed apart in the source
[15] = molecular target: T1, murine CD22 (Mus musculus, UniProt P35329); details: cited from earlier work
T1 sequence (P35329 22-868): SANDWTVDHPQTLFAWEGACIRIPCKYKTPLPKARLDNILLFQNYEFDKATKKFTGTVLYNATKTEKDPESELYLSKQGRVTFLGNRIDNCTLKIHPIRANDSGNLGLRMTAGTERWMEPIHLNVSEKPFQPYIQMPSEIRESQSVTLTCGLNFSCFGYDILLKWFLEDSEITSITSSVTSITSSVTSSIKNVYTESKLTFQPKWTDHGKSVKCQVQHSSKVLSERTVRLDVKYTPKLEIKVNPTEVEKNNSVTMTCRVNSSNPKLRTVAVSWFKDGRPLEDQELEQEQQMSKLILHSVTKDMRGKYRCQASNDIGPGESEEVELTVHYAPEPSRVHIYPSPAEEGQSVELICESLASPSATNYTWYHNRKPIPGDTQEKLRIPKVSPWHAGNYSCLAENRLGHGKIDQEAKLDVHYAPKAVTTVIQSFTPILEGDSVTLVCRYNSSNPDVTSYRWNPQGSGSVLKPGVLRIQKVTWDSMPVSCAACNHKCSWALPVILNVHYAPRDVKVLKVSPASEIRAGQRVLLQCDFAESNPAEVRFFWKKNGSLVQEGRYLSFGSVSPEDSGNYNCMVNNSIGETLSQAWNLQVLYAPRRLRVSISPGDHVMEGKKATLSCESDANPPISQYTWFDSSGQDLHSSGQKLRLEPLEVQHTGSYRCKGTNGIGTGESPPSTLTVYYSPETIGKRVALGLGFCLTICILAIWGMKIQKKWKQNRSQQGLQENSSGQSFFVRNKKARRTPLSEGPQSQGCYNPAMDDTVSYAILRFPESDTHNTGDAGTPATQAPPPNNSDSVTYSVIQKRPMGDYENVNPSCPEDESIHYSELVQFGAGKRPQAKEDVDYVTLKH

[16] = test system: leukocyte infiltration; details: 100 ng dose; cited from earlier work
[17] = test system: human polymorphonuclear leukocyte (PMN) trans-endothelial migration; details: equipotent to resolvin D1; read-out: EC50 of reduction of PMN trans-endothelial migration; cited from earlier work
[18] = molecular target: P2Y2 (Homo sapiens, UniProt P41231); details: read-out: EC50 for activation of P2Y2; cited from earlier work
[19] = molecular target: T2, P2X7 (Homo sapiens, UniProt Q99572); details: read-out: EC50 for activation of P2X7; cited from earlier work
T2 sequence (Q99572 1-595): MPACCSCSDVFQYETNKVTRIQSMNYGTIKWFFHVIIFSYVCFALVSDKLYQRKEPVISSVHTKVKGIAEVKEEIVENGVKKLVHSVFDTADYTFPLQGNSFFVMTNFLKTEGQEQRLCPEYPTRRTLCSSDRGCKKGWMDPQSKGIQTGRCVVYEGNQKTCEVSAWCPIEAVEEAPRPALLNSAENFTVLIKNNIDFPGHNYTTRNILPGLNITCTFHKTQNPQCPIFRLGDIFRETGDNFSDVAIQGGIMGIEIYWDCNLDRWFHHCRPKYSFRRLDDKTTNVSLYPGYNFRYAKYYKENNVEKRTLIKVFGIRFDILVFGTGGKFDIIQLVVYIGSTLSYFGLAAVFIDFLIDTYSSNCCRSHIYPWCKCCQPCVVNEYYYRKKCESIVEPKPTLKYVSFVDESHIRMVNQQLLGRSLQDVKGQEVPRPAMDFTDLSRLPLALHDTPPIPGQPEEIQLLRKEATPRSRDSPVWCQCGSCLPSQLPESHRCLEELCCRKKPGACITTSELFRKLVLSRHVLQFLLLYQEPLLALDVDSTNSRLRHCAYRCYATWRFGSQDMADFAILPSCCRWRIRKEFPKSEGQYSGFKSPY

[20] = test system: phagocytes; details: cited from earlier work
[21] = In vitro release of ATP from PLGA-PEG-PLGA hydrogels; assay type: physicochemical
Procedure: An aliquot of 20 μl of a 10 mM solution of ATP is combined with 160 μl of 25% gel solution of Example 4.1 and 20 μl of 10×PBS (final concentration of ATP is 1 mM). The mixture is incubated for 2 minutes at 37° C. to induce gelling and overlayed with 1 ml of 1×PBS. At frequent timepoints the supernatant is removed by pipetting and stored at 4° C. The removed supernatant is replaced by fresh 1 ml of 1×PBS. After 48 hours the samples are measured spectrometrically at 260 nm and the amount of released ATP is calculated as percentage of a reference sample containing a concentration of ATP equaling 100% release.

Chain of P2Y2 (P41231 whole entry, species assumed): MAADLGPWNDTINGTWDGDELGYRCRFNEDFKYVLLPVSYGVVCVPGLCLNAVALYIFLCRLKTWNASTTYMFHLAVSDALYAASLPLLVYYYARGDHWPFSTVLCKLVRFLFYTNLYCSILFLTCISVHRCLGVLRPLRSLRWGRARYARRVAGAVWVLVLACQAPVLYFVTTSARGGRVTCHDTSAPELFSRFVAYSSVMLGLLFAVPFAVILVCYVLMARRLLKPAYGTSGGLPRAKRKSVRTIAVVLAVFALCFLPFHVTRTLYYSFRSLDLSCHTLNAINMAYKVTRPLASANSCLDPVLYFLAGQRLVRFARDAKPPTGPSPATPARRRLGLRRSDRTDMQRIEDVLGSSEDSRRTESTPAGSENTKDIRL

Compound: C=C1/C(=C\C=C2/CCC[C@]3(C)[C@@H]([C@H](C)CCCC(C)(C)O)CC[C@@H]23)C[C@@H](O)C[C@@H]1O [calcitriol, 1α,25-dihydroxyvitamin D3]
serum level of calcitriol to be kept below to avoid toxicity [1]: below 250 ng/ml | treated mice in which appearance of paralysis was prevented [2]: 70% | calcitriol concentration required to effectively induce FoxP3(+)Tregs and FoxP3(−)IL-10(+)TR1 cells [3]: 2.5 µM | calcitriol dose that can be administered as single bolus i.p. injection ([4]; in 0.2 ml normal saline): up to 500 ng/mouse | calcitriol dose above which mice become hypercalcemic on day 2 or 3 ([4]; single bolus i.p.): higher than 750 ng/mouse | solubility ([5]; 1:5 ethanol:PBS, pH 7.2, aqueous with cosolvent or surfactant or cyclodextrin, read-out: solubility in a 1:5 solution of ethanol:PBS, pH 7.2): ~0.15 mg/mL (≈ 0.36 mM) | solubility ([5]; ethanol, organic solvent or mixture, read-out: solubility in ethanol): ~50 mg/mL (≈ 120 mM) | hydrogel-embedded calcitriol released ([6]; after 12 hours): approx. 45% | hydrogel-embedded calcitriol released ([6]; after 24 hours): approx. 65% | hydrogel-embedded calcitriol released ([6]; after 48 hours): approx. 85% | hydrogel-embedded calcitriol released ([6]; within the first 2 hours): approx. 15% | single oral dose relatively well tolerated (grade 1 to 2 adverse events) [7]: up to 165 μg

Compound: C=C1CC[C@H](O)C/C1=C/C=C1\CCC[C@]2(C)[C@@H]([C@H](C)CCCC(C)(C)O)CC[C@@H]12 [calcidiol, 25-hydroxyvitamin D3]
plasma calcidiol concentration tolerated with normocalcemia [8]: 250 to 1000 nM | plasma calcidiol concentration producing vitamin D toxicity ([9]; Jones (2008)): above 0.75 μM | calcidiol level at which toxicity occurs ([9]; Shephard and DeLuca (1980)): ≥ 500 ng/mL

Compound: O=C([O-])c1ccccc1O.[Na+] [sodium salicylate]
concentration inhibiting TNFR1-mediated activation of NF-κB [10]: 10 to 20 mM

Compound: C=C1/C(=C\C=C2/CCC[C@]3(C)[C@@H]([C@H](C)/C=C/[C@@H](O)C4CC4)CC[C@@H]23)C[C@@H](O)C[C@@H]1O [calcipotriol]
single s.c. dose up to which no death occurred [11]: ≤ 540 μg/kg body weight | rate of clearance, times higher than for 1,25-(OH)2D3 ([12]; compared to 1,25-(OH)2D3 / calcitriol): approximately 140 times | detectable in serum by HPLC up to ([12]; i.v. injection of 10 μg/kg in rats): up to 5 min | detectable in serum by HPLC up to ([12]; i.v. injection of 50 μg/kg in rats): up to 10 min | effect on calcium metabolism, times less than 1,25-(OH)2D3 (calcitriol) [13]: 100-200 times | applied dose absorbed systemically ([14]; applied to normal skin): 5% | applied dose absorbed systemically ([14]; ointment applied topically to psoriasis plaques): approximately 6%

Compound: 9-biphenylacetyl-N-glycolylneuraminic acid-α2-6-galactose-β1-4-N-acetylglucosamine-β-ethylamine [6′-^BPANeuGc]
affinity for murine CD22, fold higher than natural ligand NeuGcα2-6Galβ1-4GlcNAc-β-ethylamine [15]: 200 fold

Compound: CC/C=C\C[C@@H](O)/C=C/C=C\C=C\C=C\[C@@H](O)[C@@H](O)C/C=C\CCC(=O)O [17(R)-Resolvin D1]
maximal inhibition of leukocyte infiltration [16]: ~35% | EC50 [17]: ~30 nM

hydrogel-embedded ATP released ([21]; after 48 hours): approx. 75% | further hydrogel-embedded ATP released ([21]; another, within the next 20 hours): 10% | hydrogel-embedded ATP released ([21]; within the first 5 hours (initial burst)): approx. 50%
Compound: Nc1ncnc2c1ncn2[C@@H]1O[C@H](COP(=O)(O)OP(=O)(O)OP(=O)(O)O)[C@@H](O)[C@H]1O [ATP]
EC50 [18]: < 1000 nM | EC50 [19]: > 100000 nM | maximal migration of phagocytes (increase) ([20]; at about 100 nM): threefold increase | concentration effecting maximal migration of phagocytes ([20]; transwell migration assay): about 100 nM

Reference: patent US20160338955A1, “ANTIGEN-SPECIFIC IMMUNOTHERAPY USING TOLERIZING LIPOSOMES” (PLS-Design GmbH, priority 2015, published 2016)
